Assay: Neuroprotective activity in human MC65 cells cultured in TC-deficient medium assessed as inhibition of TC-deficiency induced cell death by measuring increase in cell viability measured after 72 hrs by MTT assay
Type: functional, cell-based
Settings: MC65, 72 h

Structure (SMILES)	EC50 [µM]
O=C(CC(O)CCc1ccc(O)cc1)NCCc1c[nH]c2ccc(O)cc12 (racemic)	0.0092
O=C(CCc1ccc(O)cc1)CC(=O)NCCc1c[nH]c2ccc([N+](=O)[O-])cc12	0.5
C#CCOc1ccc2[nH]cc(CCNC(=O)CC3(CCc4ccc(O)cc4)N=N3)c2c1	0.0261
COc1ccc2[nH]cc(CCNC(=O)CC(=O)/C=C/c3ccc(N(C)C)cc3)c2c1	0.976
COc1ccc2[nH]cc(CCNC(=O)CC(=O)/C=C/c3cccnc3)c2c1	> 3
COc1ccc2[nH]cc(CCNC(=O)C3CCC(Cc4ccc(O)cc4)C3=O)c2c1 (racemic)	> 3
COc1ccc2[nH]cc(CCNC(=O)C3CCC/C(=C\c4ccc(O)cc4)C3=O)c2c1 (racemic)	0.224
COc1ccc2[nH]cc(CCNC(=O)CC(=O)/C=C/c3ccco3)c2c1	0.228
O=C(CCc1ccc(O)cc1)CC(=O)NCCc1c[nH]c2ccc(O)cc12	0.363
COc1ccc(CCC(=O)CC(=O)NCCc2c[nH]c3ccc(OC)cc23)cc1	0.49
[N-]=[N+]=Nc1ccc2[nH]cc(CCNC(=O)CC(=O)CCc3ccc(O)cc3)c2c1	0.0165
COc1ccc(CCC2(CC(=O)NCCc3c[nH]c4ccc(OC)cc34)N=N2)cc1	> 3
COc1ccc2[nH]cc(CCNC(=O)CC(=O)/C=C/c3ccc4c(c3)OCO4)c2c1	> 3
COc1ccc2[nH]cc(CCNC(=O)CC3(CCc4ccc(O)cc4)N=N3)c2c1	0.0562
COc1ccc2[nH]cc(CCNC(=O)CC(=O)CCc3ccc(F)cc3)c2c1	0.033
COc1ccc2[nH]cc(CCNC(=O)C3CCCC(Cc4ccc(O)cc4)C3=O)c2c1 (racemic)	> 3
COc1ccc2[nH]cc(CCNC(=O)CC(=O)/C=C/c3ccoc3)c2c1	0.336
COc1ccc2[nH]cc(CCNC(=O)CC(=O)/C=C/c3ccc(O)cc3)c2c1	0.029
O=C(/C=C/c1ccc(O)cc1)CC(=O)NCCc1c[nH]c2ccc(O)cc12	0.178
COc1ccc2[nH]cc(CCNC(=O)CC(=O)/C=C/c3ccncc3)c2c1	> 3
C#CCOc1ccc2[nH]cc(CCNC(=O)CC(=O)CCc3ccc(O)cc3)c2c1	0.032
COc1ccc2[nH]cc(CCNC(=O)CC(=O)/C=C/c3ccc(F)cc3)c2c1	0.0328
COc1ccc2[nH]cc(CCNC(=O)CC(=O)CCc3ccc(O)cc3)c2c1	0.0326
COc1ccc2[nH]cc(CCNC(=O)C3CC/C(=C\c4ccc(O)cc4)C3=O)c2c1 (racemic)	0.127
Nc1ccc2[nH]cc(CCNC(=O)CC(=O)CCc3ccc(O)cc3)c2c1	> 3
